#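 In this assay, cells in 96-well plates receive the compound at five concentrations for 48 hours. Endpoints are linearly interpolated between the surrounding concentrations. The concentration for 50% growth inhibition is given as GI50.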 Active and inactive are the calls of the source. Cut-off read from the data, not from the text of the source: active = GI50 up to about 1.1 µM and inactive = higher.
# What was measured:
# Experiment in all cases: growth of human tumour cells (NCI), 48 h
# M14 = test system: M14
# NCI-H522 = test system: NCI-H522
# SK-MEL-28 = test system: SK-MEL-28
# EKVX = test system: EKVX
# UO-31 = test system: UO-31
# IGROV-1 = test system: IGROV-1
# RXF 631 = test system: RXF 631
# DLD-1 = test system: DLD-1
# XF498 = test system: XF498
# SK-MEL-5 = test system: SK-MEL-5
# UACC-257 = test system: UACC-257
# U-251 = test system: U-251
# HOP-92 = test system: HOP-92
# UACC-62 = test system: UACC-62
# COLO 205 = test system: COLO 205
# NCI-H23 = test system: NCI-H23
# OVCAR-5 = test system: OVCAR-5
# HCT-15 = test system: HCT-15
# SNB-19 = test system: SNB-19
# CAKI-1 = test system: CAKI-1
# SNB-75 = test system: SNB-75
# HOP-62 = test system: HOP-62
# HCT-116 = test system: HCT-116
# SF-539 = test system: SF-539
# SK-MEL-2 = test system: SK-MEL-2
# KM12 = test system: KM12
# Malme-3M = test system: Malme-3M
# SN12C = test system: SN12C
# SF-268 = test system: SF-268
# HOP-18 = test system: HOP-18
# OVCAR-3 = test system: OVCAR-3
# DMS-114 = test system: DMS-114
# SW-620 = test system: SW-620
# HT-29 = test system: HT-29
# NCI-H460 = test system: NCI-H460
# OVCAR-8 = test system: OVCAR-8
# SNB-78 = test system: SNB-78
# RXF 393 = test system: RXF 393
# HL-60 = test system: HL-60
# HCC 2998 = test system: HCC 2998
# A498 = test system: A498
# DMS-273 = test system: DMS-273
# M19-MEL = test system: M19-MEL
# ACHN = test system: ACHN
# TK-10 = test system: TK-10
# A549 = test system: A549
# 786-0 = test system: 786-0
# LXFL 529 = test system: LXFL 529
# NCI-H226 = test system: NCI-H226
# KM-20L2 = test system: KM-20L2
# SK-OV-3 = test system: SK-OV-3
# MOLT-4 = test system: MOLT-4
# OVCAR-4 = test system: OVCAR-4
# SF-295 = test system: SF-295
# SR = test system: SR
# LOX IMVI = test system: LOX IMVI
# K562 = test system: K562
# CCRF-CEM = test system: CCRF-CEM
# RPMI-8226 = test system: RPMI-8226
smiles,measurement,setting,value
Cc1ccc(NC(=O)C2C(=O)N(c3ccc(C)c(C)c3)C(=O)C2N=N)cc1C (stereo not given),GI50,M14,> 100 µM (inactive)
same,GI50,NCI-H522,38.1 µM (inactive)
same,GI50,SK-MEL-28,> 100 µM (inactive)
same,GI50,EKVX,> 100 µM (inactive)
same,GI50,UO-31,> 100 µM (inactive)
same,GI50,IGROV-1,97.1 µM (inactive)
same,GI50,RXF 631,> 100 µM (inactive)
same,GI50,DLD-1,> 100 µM (inactive)
same,GI50,XF498,> 100 µM (inactive)
same,GI50,SK-MEL-5,67 µM (inactive)
same,GI50,UACC-257,> 100 µM (inactive)
same,GI50,U-251,95.9 µM (inactive)
same,GI50,HOP-92,47.9 µM (inactive)
same,GI50,UACC-62,> 100 µM (inactive)
same,GI50,COLO 205,> 100 µM (inactive)
same,GI50,NCI-H23,74.5 µM (inactive)
same,GI50,OVCAR-5,> 100 µM (inactive)
same,GI50,HCT-15,74.6 µM
same,GI50,SNB-19,> 100 µM (inactive)
same,GI50,CAKI-1,> 100 µM (inactive)
same,GI50,SNB-75,> 100 µM (inactive)
same,GI50,HOP-62,> 100 µM (inactive)
same,GI50,HCT-116,> 100 µM (inactive)
same,GI50,SF-539,> 100 µM (inactive)
same,GI50,SK-MEL-2,> 100 µM (inactive)
same,GI50,KM12,> 100 µM (inactive)
same,GI50,Malme-3M,> 100 µM (inactive)
same,GI50,SN12C,> 100 µM (inactive)
same,GI50,SF-268,> 100 µM (inactive)
same,GI50,HOP-18,> 100 µM (inactive)
same,GI50,OVCAR-3,> 100 µM (inactive)
same,GI50,DMS-114,61.5 µM (inactive)
same,GI50,SW-620,> 100 µM (inactive)
same,GI50,HT-29,> 100 µM (inactive)
same,GI50,NCI-H460,89.7 µM (inactive)
same,GI50,OVCAR-8,99.5 µM (inactive)
same,GI50,SNB-78,> 100 µM (inactive)
same,GI50,RXF 393,> 100 µM (inactive)
same,GI50,HL-60,> 100 µM (inactive)
same,GI50,HCC 2998,> 100 µM (inactive)
same,GI50,A498,> 100 µM (inactive)
same,GI50,DMS-273,86.5 µM (inactive)
same,GI50,M19-MEL,> 100 µM (inactive)
same,GI50,ACHN,90.4 µM (inactive)
same,GI50,TK-10,> 100 µM (inactive)
same,GI50,A549,58.9 µM (inactive)
same,GI50,786-0,> 100 µM (inactive)
same,GI50,LXFL 529,> 100 µM (inactive)
same,GI50,NCI-H226,> 100 µM (inactive)
same,GI50,KM-20L2,> 100 µM (inactive)
same,GI50,SK-OV-3,> 100 µM (inactive)
same,GI50,MOLT-4,> 100 µM (inactive)
same,GI50,OVCAR-4,> 100 µM (inactive)
same,GI50,SF-295,65 µM (inactive)
Cc1cc(NS(=O)(=O)c2ccc(NC(=O)c3cccn4c(=O)c5ccccc5nc34)cc2)no1,GI50,M14,> 100 µM (inactive)
same,GI50,NCI-H522,> 100 µM (inactive)
same,GI50,SK-MEL-28,> 100 µM (inactive)
same,GI50,EKVX,> 100 µM (inactive)
same,GI50,SR,> 100 µM (inactive)
same,GI50,UO-31,> 100 µM (inactive)
same,GI50,IGROV-1,> 100 µM (inactive)
same,GI50,RXF 631,> 100 µM (inactive)
same,GI50,DLD-1,> 100 µM (inactive)
same,GI50,XF498,> 100 µM (inactive)
same,GI50,SK-MEL-5,> 100 µM (inactive)
same,GI50,UACC-257,> 100 µM (inactive)
same,GI50,U-251,> 100 µM (inactive)
same,GI50,HOP-92,> 100 µM (inactive)
same,GI50,UACC-62,> 100 µM (inactive)
same,GI50,COLO 205,> 100 µM (inactive)
same,GI50,LOX IMVI,> 100 µM (inactive)
same,GI50,NCI-H23,> 100 µM (inactive)
same,GI50,K562,> 100 µM (inactive)
same,GI50,CCRF-CEM,> 100 µM (inactive)
same,GI50,SNB-19,> 100 µM (inactive)
same,GI50,RPMI-8226,> 100 µM (inactive)
same,GI50,CAKI-1,> 100 µM (inactive)
same,GI50,SNB-75,> 100 µM (inactive)
same,GI50,HOP-62,> 100 µM (inactive)
same,GI50,HCT-116,> 100 µM (inactive)
same,GI50,SF-539,> 100 µM (inactive)
same,GI50,KM12,> 100 µM (inactive)
same,GI50,Malme-3M,> 100 µM (inactive)
same,GI50,SN12C,> 100 µM (inactive)
same,GI50,SF-268,> 100 µM (inactive)
same,GI50,HOP-18,> 100 µM (inactive)
same,GI50,OVCAR-3,> 100 µM (inactive)
same,GI50,DMS-114,> 100 µM (inactive)
same,GI50,SW-620,> 100 µM (inactive)
same,GI50,HT-29,> 100 µM (inactive)
same,GI50,NCI-H460,> 100 µM (inactive)
same,GI50,OVCAR-8,> 100 µM (inactive)
same,GI50,SNB-78,> 100 µM (inactive)
same,GI50,RXF 393,> 100 µM (inactive)
same,GI50,HL-60,> 100 µM (inactive)
same,GI50,HCC 2998,> 100 µM (inactive)
same,GI50,A498,> 100 µM (inactive)
same,GI50,DMS-273,> 100 µM (inactive)
same,GI50,M19-MEL,> 100 µM (inactive)
same,GI50,ACHN,> 100 µM (inactive)
same,GI50,TK-10,> 100 µM (inactive)
same,GI50,A549,> 100 µM (inactive)
same,GI50,786-0,> 100 µM (inactive)
same,GI50,LXFL 529,> 100 µM (inactive)
same,GI50,NCI-H226,> 100 µM (inactive)
same,GI50,KM-20L2,> 100 µM (inactive)
same,GI50,SK-OV-3,> 100 µM (inactive)
same,GI50,MOLT-4,> 100 µM (inactive)
same,GI50,OVCAR-4,> 100 µM (inactive)
same,GI50,SF-295,> 100 µM (inactive)

# From ChEMBL document CHEMBL1201862, “PubChem BioAssay data set” (2004)
